From patent US20260055150A1, “GRAIL-1 PEPTIDE PRODUCTS AND METHODS” (REGENTS OF THE UNIVERSITY OF MICHIGAN, priority 2022, published 2026)
“And” between values parts separate entries of the source, which are not always exact repeats. Equal entries are not always repeated. “Also recorded” adds a separate entry of the source. Where a SMILES comes first, the peptide text is derived from it. Where no end group is shown, it is not given here.

Experiments:
mutant p53-R175H = test: Immunoblotting of mutant p53 steady state levels in CpD cells; type: cell-based; conditions: CpD cells transfected with DDK-tagged p53R175H; peptides 20 mM for 6 h
Experimental: CpD cells overexpressing mutant p53 were transfected with DDK-tagged p53R175H mutant. Cells were then treated with indicated peptides ([…] for 6 h).
Consequently, the effect of all thirteen peptides on mutant p53 steady state levels was tested.

CpD cells = test: Clonogenic survival of mutant p53 driven CpD cells; conditions: for cytotoxic effect on either cell type: CpA and CpD cells; for differential activity in reducing clonogenic survival of CpD cells: CpD versus CpA
Experimental: The effects of different siRNAs (e.g., GRAIL Iso1-1, GRAIL Iso1-2, TP53) on clonogenic survival of different BE (CpA, CpD) and EAC (Flo1, OE19, and OE33) cell lines were determined by normalizing the survival fraction of control siRNA-treated group as 1.
For this purpose, two BE cell lines were used, CpA (with wild type p53) and CpD (carrying mutant p53). […] In brief, 3000 cells in 100 μl of complete medium were plated per well in a 96-well plate 24 h prior to peptide treatments. Cells were then either treated with vehicle (dH2O) or serial dilutions of peptides. Two days following treatments MTT labelling reagent was added, and cells were allowed to form formazan crystals for 2 h. Following, 100 μl of solubilizing agent (10% SDS in 0.01M HCl) was added per well, and plates were incubated at 37° C. overnight. The optical density (OD) of the solubilized formazan was spectrophotometrically quantified using a plate reader at 570 nm with a reference at 650 nm. Data represent the mean (±standard error, SE) performed in quadruplicate, and percent cell viabilities are plotted in semi-logarithmic scale relative to water treated control.

DNAJA1 [1] = test: Peptide pull down assay with recombinant DNAJA1; type: binding; conditions: NHS activated Sepharose beads, Western blot
Experimental: Briefly, 1 mg of peptide was dissolved in 1 ml of coupling buffer (0.2 M NaHCO3, 0.5 M NaCl, pH 8.3). Peptides were conjugated to NHS-activated resin by incubating 100 μL NHS bead slurry with 200 μL peptide solution for 2 hours at room temperature (RT). Unbound sites were blocked with quenching buffer (0.5 M ethanolamine, 500 mM NaCl). Resin peptide conjugates were washed once with low pH (0.1 M acetate, 0.5 M NaCl, pH 5) and high pH buffer (0.1 M Tris HCl, pH 8.0) and equilibrated with lysis buffer 50 mM HEPES, 150 mM NaCl, 0.2% NP-40, protease inhibitor cocktail, pH 7.5. Purified HSP40 protein was procured from […] (cat #). Purified protein was diluted in lysis buffer. Approximately 40 nM protein was incubated with peptide coupled to NHS beads and incubated for 2 hours at RT. Unbound proteins were removed by centrifugation and beads were washed with washing buffer (50 mM HEPES, 300 mM NaCl, 0.2% NP-40, pH 7.5). Bound proteins were obtained by boiling beads with 1× Laemmli buffer. […] To confirm, thermal stability assays (TSA) were performed. TSA was carried out using QuantStudio™ 7 Flex Real-Time PCR System. […] The plates were covered with optical foil during the reaction in the thermal cycler. […] The Instrument was programmed in the melt curve mode with ROX reagent detection and Fast speed run. The reporter was selected as Rox and none for quencher. Each melt curve was programmed as follows: 25° C. for 15 sec, followed by increase in temperature at the speed of 0.03° C./s up to 95° C. and finally 95° C. for 15 sec. The raw data was exported to Protein Thermal Shift™ Software (Applied Biosystems) for analysis. Melting temperature was calculated using the melt curve. […] To further test functionality, an in vitro ATPase activity assay was performed using purified Hsp40 and Hsp70 proteins. […] Pep 1 was redesignated “Pep J”.

[2] = system: OE33, OE 19 and Flo1 esophageal adenocarcinoma (EAC) cells; test: Radiosensitization clonogenic assay of EAC cells; type: cell-based; conditions: 20 μM for 24 hours, then 0-8 Gy
Experimental: OE33, OE 19 and Flo1 esophageal adenocarcinoma (EAC) cells were plated and after overnight incubation treated with 20 μM of Pep J for an additional 24 hours. Following, cells were irradiated with different doses (0, 2, 4, 6, 8 Gy) of radiation. Cells were then incubated for 24 hours prior to plating at a clonal density to perform clonogenic assays.

mutant p53 = system: mutant p53
Experimental: The effect of Pep J and simvastatin treatment either alone or in combination on wild type and mutant p53 was tested in BE/EAC cells present in ten established PDOs grown in vitro. Scrambled Pep J was used as a negative control. […] Different concentrations of Pep J (10-200 μM) and simvastatin (50-1000 nM) were tested as well as different treatment time periods (24-96 hours).
Organoid lysates were prepared for immunoblotting similar to FIG. 13G.

[3] = system: chaperone activity (Fluc-DM); test: Fluc-DM luciferase reporter of cellular chaperone activity; type: cell-based; conditions: 20 μM peptide, overnight
Experimental: As Frag J/J^m overexpression locks DNAJA1-Hsp70 complex, whether such interactions inhibit chaperone activity was tested. […] To understand the in vivo effects of the Frag J or different peptides in multiple cell lines including BE/EAC and p53 isogenic lines, cells were first transfected/co-transfected with Fluc-DM±Frag J constructs. Twenty-four hours post-transfection, cells were either subjected to luciferase assay or for peptide treatment studies, cells were treated with 20 μM concentrations of different peptides. After overnight incubation, cell lysates were prepared using lysis buffer provided in the luciferase assay kit in Promega luciferase assay system (cat. E1910) followed by standardized protocol as provided by the manufacturer. […] Such observation was confirmed by an in vitro chaperone activity assay using recombinant purified Hsp40-Hsp70 complex (FIG. 6D). In Fluc-DM study, loss of Fluc-DM levels following Frag J/J^m overexpression (FIG. 6E) was noted as shown using immunoblotting. Such effects were independent of p53 mutation status.

mutant p53 and EGFR = test: Immunoblotting of mutant p53 and EGFR levels in BE/EAC cells; type: cell-based
[4] = system: patient-derived organoids (PDOs); test: Growth and survival of patient derived organoids in vitro; type: cell-based, human
[5] = system: EAC cells (Flo1, OE19, and OE33); test: Cell viability (MTT) of EAC cell lines; type: cell-based
OE19 = OE19 cells
Hsp40-Hsp70 = Hsp40-Hsp70 (Homo sapiens, UniProt P31689); test: In vitro Hsp40-Hsp70 ATPase (chaperone) activity assay; type: biochemical; conditions: TAT-less peptides, dose-dependent
Experimental: (§1) Briefly, 1 mg of peptide was dissolved in 1 ml of coupling buffer (0.2 M NaHCO3, 0.5 M NaCl, pH 8.3). Peptides were conjugated to NHS-activated resin by incubating 100 μL NHS bead slurry with 200 μL peptide solution for 2 hours at room temperature (RT). Unbound sites were blocked with quenching buffer (0.5 M ethanolamine, 500 mM NaCl). Resin peptide conjugates were washed once with low pH (0.1 M acetate, 0.5 M NaCl, pH 5) and high pH buffer (0.1 M Tris HCl, pH 8.0) and equilibrated with lysis buffer 50 mM HEPES, 150 mM NaCl, 0.2% NP-40, protease inhibitor cocktail, pH 7.5. Purified HSP40 protein was procured from Boston Scientific (cat #). Purified protein was diluted in lysis buffer. Approximately 40 nM protein was incubated with peptide coupled to NHS beads and incubated for 2 hours at RT. Unbound proteins were removed by centrifugation and beads were washed with washing buffer (50 mM HEPES, 300 mM NaCl, 0.2% NP-40, pH 7.5). Bound proteins were obtained by boiling beads with 1× Laemmli buffer. […] To confirm, thermal stability assays (TSA) were performed. TSA was carried out using QuantStudio™ 7 Flex Real-Time PCR System. […] The plates were covered with optical foil during the reaction in the thermal cycler. […] The Instrument was programmed in the melt curve mode with ROX reagent detection and Fast speed run. […] Melting temperature was calculated using the melt curve. […]

DNAJA1 [6] = test: Thermal stability assay (TSA) with purified DNAJA1; type: binding; conditions: TAT-less peptides, 0-500 μM
Experimental: as §1

claudin-1 = target: T1, claudin-1 (Homo sapiens, UniProt O95832); test: In vivo fluorescence imaging with RTS*-Cy5.5; design: species or system mouse; conditions: after intravenous administration
T1 construct: endogenous in cells; host or cells: colonic PDO implanted in mouse rectum
T1 sequence (O95832 1-211): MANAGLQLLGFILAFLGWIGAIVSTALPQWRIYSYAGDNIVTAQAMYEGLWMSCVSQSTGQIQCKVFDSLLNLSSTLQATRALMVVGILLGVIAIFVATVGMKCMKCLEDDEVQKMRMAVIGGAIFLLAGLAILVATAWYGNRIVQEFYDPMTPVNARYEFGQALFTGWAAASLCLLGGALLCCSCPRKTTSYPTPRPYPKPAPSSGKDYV
Experimental: (A) Photo of is shown of a flexible fiber-coupled side-view confocal endomicroscope. […] Confocal images show claudin-1 expression from (D) dysplasia and (E) normal colonic mucosa with subcellular resolution. Images were collected ˜1 hour post-injection of RTS*-Cy5.5. Crypt structures and individual cells can be identified. Key: crypt (arrow), tight junction (arrowhead), lumen (I), colonocyte (c), goblet cell (g), lamina propria (lp).
This instrument has a diameter of 4.2 mm, which is small enough to perform repetitive in vivo imaging in mouse colon. The focusing optics provide a spatial resolution of 1.2 μm. A rigid wide-field endoscope was used first to collect white light (WL) and NIR fluorescence (FL) images to identify the approximate location of the implanted PDOs. Landmarks defined by the clockwise location of and distance from the anus to the distal tip of the endoscope were used to approximately locate the implanted PDOs for collection of confocal images. Tumor size and volume were estimated using a calibrated gauge passed through the instrument channel of the rigid endoscope. […] Differences in the spatial pattern of target expression between dysplasia and surrounding normal mucosa for colonic PDOs can be seen (FIG. 18D,E).

GRKKRRQRRRPQCKVPPWRQ [Pep 8]
mutant p53-R175H protein levels (mutant p53-R175H): decrease in mutant p53 levels

N=C(N)NCCC[C@H](NC(=O)CN)C(=O)N[C@@H](CCCCN)C(=O)N[C@@H](CCCCN)C(=O)N[C@@H](CCCNC(=N)N)C(=O)N[C@@H](CCCNC(=N)N)C(=O)N[C@@H](CCC(N)=O)C(=O)N[C@@H](CCCNC(=N)N)C(=O)N[C@@H](CCCNC(=N)N)C(=O)N[C@@H](CCCNC(=N)N)C(=O)N[C@@H](CCCNC(=N)N)C(=O)N1CCC[C@H]1C(=O)N[C@@H](CCC(N)=O)C(=O)O [Pep 13, GRKKRRQRRRRPQ]
cytotoxic effect on either cell type (CpD cells): least cytotoxic effect

CKVPPWR [Pep 28, TAT-less Pep 9]
interaction with purified DNAJA1 in peptide pull down (DNAJA1 [1]): bound effectively

CC[C@H](C)[C@H](NC(=O)[C@H](CC(=O)O)NC(=O)[C@H](CS)NC(=O)[C@H](CCCCN)NC(=O)[C@H](CS)NC(=O)[C@H](CCSC)NC(=O)[C@@H]1CCCN1C(=O)[C@H](CCC(N)=O)NC(=O)[C@@H]1CCCN1C(=O)[C@H](CCCNC(=N)N)NC(=O)[C@H](CCCNC(=N)N)NC(=O)[C@H](CCCNC(=N)N)NC(=O)[C@H](CCC(N)=O)NC(=O)[C@H](CCCNC(=N)N)NC(=O)[C@H](CCCNC(=N)N)NC(=O)[C@H](CCCCN)NC(=O)[C@H](CCCCN)NC(=O)[C@H](CCCNC(=N)N)NC(=O)CN)C(=O)N[C@@H](CC(C)C)C(=O)N[C@@H](CCCCN)C(=O)N[C@@H](C)C(=O)O [Pep 1] (H-GRKKRRQRRRPQPMCKCDILKA-OH; N-terminus and C-terminus assumed)
differential activity in reducing clonogenic survival of CpD cells (CpD cells): better differential activity
radiosensitization [2]: radiosensitized
mutant p53 (nuclear) levels by immunofluorescence (mutant p53; FFPE fixed and sectioned organoids, 72 h, listed as Pep J): significant reduction
reduction in mutant p53 levels (mutant p53; immunoblotting of whole PDO lysis, 72 hours of treatment): 50%
misfolded mutant p53 levels in PDOs (mutant p53; within 24 h post treatment): loss of misfolded mutant p53
inhibition of chaperone activity (Fluc-DM) [3]: inhibition of chaperone activity; also recorded: capable of inhibiting chaperone activity
interaction with purified DNAJA1 in peptide pull down (DNAJA1 [1]): showed interactions
mutant p53-R175H protein levels (mutant p53-R175H): highly effective; also recorded: decrease in mutant p53 levels
impact on p53 and EGFR levels in wild type p53 cells (mutant p53 and EGFR; CpA cells): no major impact
EGFR levels (mutant p53 and EGFR; CpD and OE33 cells): reduces
mutant p53 levels (mutant p53 and EGFR; CpD and OE33 cells): reduces
killing of PDOs ([4]; 7 days treatment in vitro): killed PDOs
size of organoid growth ([4]; after 72 h of treatment): No major effect
effect on EAC cell lines [5]: relatively more resistant

GRKKRRQRRRPQCKVPPWR [Pep 9]
differential activity in reducing clonogenic survival of CpD cells (CpD cells): better differential activity
inhibition of chaperone activity (Fluc-DM) [3]: inhibition of chaperone activity; also recorded: capable of inhibiting chaperone activity
mutant p53-R175H protein levels (mutant p53-R175H): highly effective; also recorded: decrease in mutant p53 levels

GRKKRRQRRRPQPMCKVPPWR [Pep 7]
mutant p53-R175H protein levels (mutant p53-R175H): decrease in mutant p53 levels

GRKKRRQRRRPQPMCKVPPWRQ [Pep 5]
differential activity in reducing clonogenic survival of CpD cells (CpD cells): better differential activity
IC50 (CpD cells; read-out: IC50, clonogenic survival, CpD cells (mutant p53)): 11.2 µM and ~11 µM
inhibition of chaperone activity (Fluc-DM) [3]: inhibition of chaperone activity; also recorded: capable of inhibiting chaperone activity
IC50 (OE19): 19.4 µM
mutant p53-R175H protein levels (mutant p53-R175H): highly effective; also recorded: decrease in mutant p53 levels
effect on EAC cell lines [5]: relatively more resistant

GRKKRRQRRRPQPMCKATPWRE [Pep 4]
mutant p53-R175H protein levels (mutant p53-R175H): decrease in mutant p53 levels

PMCKCDILKA [Pep 26, TAT-less Pep 1; Frag J amino acids 1-10]
inhibition of Hsp40-Hsp70 chaperoning (ATPase) activity (Hsp40-Hsp70): best efficacy; also recorded: most effect agent
interaction with purified DNAJA1 in peptide pull down (DNAJA1 [1]): bound effectively
thermal stability assay result with DNAJA1 (DNAJA1 [6]): showed the best result; also recorded: better interactor

GRKKRRQRRRPQLGIEVDVEDG [Pep 12]
cytotoxic effect on either cell type (CpD cells): least cytotoxic effect; also recorded: list effects

RTS*-Cy5.5: Cy5.5-labeled peptide RTSPSSR, specific for claudin-1
fluorescence intensity from implanted colonic PDO (claudin-1): strong intensity

LGIEVDVEDG [Pep 29, TAT-less Pep 12; Frag J amino acids 11-20]
interaction with purified DNAJA1 in peptide pull down (DNAJA1 [1]): no interaction

PMCKVPPWRQ [Pep 27, TAT-less Pep 5]
interaction with purified DNAJA1 in peptide pull down (DNAJA1 [1]): bound effectively
